Data reported in patent publication US8106155B2, “Test kit for determining process for determining antibiotics containing a beta-lactam ring in a biological fluid” (Neogen Corporation, priority 1998, dated 2012).

Assays:
BlaR-CTD receptor [1] = target: T1, BlaR-CTD receptor (Bacillus licheniformis, UniProt P12287); experiment: 5-minute test: BlaR-CTD coupled to gold beads, membrane test device, milk; type: binding; details: 47° C.; for concentration detected in a sample of milk: test carried out in 5 minutes, positive when 1st band less intense than 2nd band; for Intensity 1st band: 5-minute test, scale 0 to 10, reference band 6
T1 construct: uses the BlaR-CTD receptor coupled to gold beads
Description: (§1) This example illustrates the detection in milk of antibiotics containing a β-lactam ring, which are controlled by the health authorities. The test described in this example uses the BlaR-CTD receptor coupled to gold beads which serve as labelling agents, and uses a support in the form of a test device comprising a solid support to which membranes are attached.
6 samples of fresh milk containing 0; 2; 4; 6; 8 and 10 ppb of cloxacillin, respectively, are prepared. Each of these solutions is then analyzed in the following way.
(§2) A 200 μl aliquot sample of milk and 45.27 μl of solution prepared in Example 1.1.3 are taken and placed in a glass flask. This mixture is incubated for 3 minutes at 47° C. A test device is taken and placed vertically in the glass flask such that the first end of the test device is in contact with the mixture and such that the second end rests on the wall of the glass flask. The mixture is left to migrate on the test device, while incubating the assembly for 2 minutes at 47° C.
(§3) An intensity value ranging from 0 to 10 is attributed to the bands detected, the value 10 being given to the most intense band and the value 0 being given to the least intense band. According to this scale, a value of 6 is assigned to the reference band. The intensity of the signal observed in the first band is inversely proportional to the amount of cloxacillin present in the sample.
(§4) In this example, when the first band has an intesity less than that of the second band, the test is considered as being positive.

[2] = test system: protein isolated from an antibiotic-sensitive microorganism, such as Bacillus stearothermophilus; details: Example 1 of European Patent Application 593 112; cited from earlier work
BlaR-CTD receptor [3] = target: T1, BlaR-CTD receptor; experiment: 9-minute test: BlaR-CTD coupled to gold beads, membrane test device, milk; type: binding; details: test carried out in 9 minutes, 47° C.; positive when 1st band less intense than 2nd band
Description: as §1
6 samples of fresh milk containing 0; 4; 6; 8; 10 and 12 ppb of cephapirin, respectively, are prepared. Each of these solutions is then analyzed in the following way.
as §2, with “for 7” for “for 3”
as §3, with “cephapirin” for “cloxacillin”
as §4

BlaR-CTD receptor [4] = target: T1, BlaR-CTD receptor; experiment: 3-minute rapid test: BlaR-CTD coupled to gold beads, membrane test device, milk; type: binding; details: test carried out in 3 minutes, 47° C.; positive when 1st band less intense than 2nd band
Description: as §1
7 samples of fresh milk containing 0; 1; 2; 3; 4; 5 and 6 ppb of penicillin G, respectively, are prepared. Each of these solutions is then analyzed in the following way:
as §2, with “1 minute” for “3 minutes”
as §3, with “penicillin G” for “cloxacillin”
as §4

[5] = target: T2, BlaR-CTD receptor in the form of two fusion proteins with alkaline phosphatase and peroxidase (Bacillus licheniformis, UniProt P12287); experiment: Example 3: BlaR-CTD fusion proteins with alkaline phosphatase and peroxidase, cephalosporin C microplate, milk; type: binding; details: absorbance at 405 nm, 47° C., at the control thresholds required by the US authorities
T2 construct: uses the BlaR-CTD receptor in the form of two fusion proteins with alkaline phosphatase and peroxidase, respectively; alkaline phosphatase, chemically coupled (Boehringer-Mannheim 1464752); peroxidase, chemically coupled (Boehringer-Mannheim 1428861)
Description: This example illustrates the detection in milk of 3 antibiotics containing a β-lactam ring which are controlled by the health authorities. The test described in this example uses the BlaR-CTD receptor in the form of two fusion proteins with alkaline phosphatase and peroxidase, respectively, and uses a support in the form of a microplate.
Polystyrene microplates with high protein adsorption, of the brand name NUNK (Immuno Plate: Maxisorp type) or of the brand name GREINER (microlon 600, reference 705071), are used. The microplate cuvettes are washed with 150 mM, pH 7.2 PBS buffer. Next, an aliquot of the solution prepared in Example 3.3.1. is incubated for 24 hours at 4° C. in the cuvettes. After incubation, the cuvettes are washed three times with 150 mM, pH 7.2 PBS buffer, 0.1% Tween-20. The tube is then saturated for two hours at 20° C. with 150 mM, pH 7.2 PBS saturation buffer, 5% BSA. After washing three times with washing buffer, the tubes are dried and stored at 4° C. away from moisture.
For the cuvettes intended for the BlaR-CTD-alkaline phosphatase recognition agent, the washing buffer used is 1 M, pH 9.8 diethanolamine, 0.5 mM MgCl2: for the cuvettes intended for the BlaR-CTD-peroxidase recognition agent, the washing buffer used is 50 mM, pH 5 potassium phosphate.
1.4 picomol of labelled recognition agent are incubated in the presence of 100 μl of doped milk for 5 minutes at 47° C. The milk is transferred using a pipette into a cuvette which has been pretreated as indicated in Example 2.3. The milk is then incubated for 2 minutes at 47° C. […] The plate is then placed in an automatic spectrophotometer for ELISA plates, the wavelength being set at 405 nm.

T1 sequence (P12287 354-601): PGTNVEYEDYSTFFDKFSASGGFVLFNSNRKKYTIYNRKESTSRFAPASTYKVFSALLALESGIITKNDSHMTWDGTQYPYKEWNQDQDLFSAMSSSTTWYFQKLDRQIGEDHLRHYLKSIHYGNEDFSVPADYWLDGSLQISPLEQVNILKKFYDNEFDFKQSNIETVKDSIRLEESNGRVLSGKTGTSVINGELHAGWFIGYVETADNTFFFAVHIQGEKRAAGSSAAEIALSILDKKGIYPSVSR
T2 sequence (P12287 354-601): as above

Structure (SMILES)	concentration detected in a sample of milk (BlaR-CTD receptor [1])	concentration detected in a sample of milk (BlaR-CTD receptor [3]) [ppb]	concentration detected in a sample of milk (BlaR-CTD receptor [4])	also measured
CC1(C)S[C@@H]2[C@H](NC(=O)[C@H](N)c3ccc(O)cc3)C(=O)N2[C@H]1C(=O)O [amoxicillin]	4 ppb	4	5 ppb	concentration detected [2]: 5 ppb
CC1(C)S[C@@H]2[C@H](NC(=O)[C@H](N)c3ccccc3)C(=O)N2[C@H]1C(=O)O [ampicillin]	4 ppb	4	5 ppb	concentration detected [2]: 10 ppb
Cc1nnc(SCC2=C(C(=O)O)N3C(=O)[C@@H](NC(=O)Cn4cnnn4)[C@H]3SC2)s1 [cefazoline]	60 ppb	45		
CO/N=C(\C(=O)N[C@@H]1C(=O)N2C(C(=O)[O-])=C(C[n+]3cccc4c3CCCC4)CS[C@H]12)c1csc(N)n1 [cefquinone]	less than 20 ppb			
Cc1onc(-c2ccccc2Cl)c1C(=O)N[C@@H]1C(=O)N2[C@@H]1SC(C)(C)[C@@H]2C(=O)O [cloxacillin]	less than 4 ppb	4	less than 10 ppb	Intensity 1st band (BlaR-CTD receptor [1]; 2 ppb cloxacillin in milk): 6; Intensity 1st band (BlaR-CTD receptor [1]; 4 ppb cloxacillin in milk): 5; Intensity 1st band (BlaR-CTD receptor [1]; 6 ppb cloxacillin in milk): 3; Intensity 1st band (BlaR-CTD receptor [1]; 8 ppb cloxacillin in milk): 3; Intensity 1st band (BlaR-CTD receptor [1]; 10 ppb cloxacillin in milk): 3; concentration detected in milk [5]: 10 ppb
Cc1onc(-c2c(Cl)cccc2Cl)c1C(=O)N[C@@H]1C(=O)N2[C@@H]1SC(C)(C)[C@@H]2C(=O)O [dicloxacillin]	8 ppb			
CCOc1ccc2ccccc2c1C(=O)N[C@@H]1C(=O)N2[C@@H]1SC(C)(C)[C@@H]2C(=O)O [nafcillin]	20 ppb			
Cc1onc(-c2ccccc2)c1C(=O)N[C@@H]1C(=O)N2[C@@H]1SC(C)(C)[C@@H]2C(=O)O [oxacillin]	8 ppb			
